Experimental findings from patent publication US20170145002A1, “DEUTERATED ISOXAZOLE DERIVATIVES AND THEIR USE AS METABOTROPIC GLUTAMATE RECEPTOR POTENTIATORS” (AstraZeneca AB, priority 2015, published 2017) are described below.

Data set [1] is described as follows: Metabolic stability and intrinsic clearance in rat hepatocytes. The class given is in vitro ADME. To be noted: cryopreserved rat hepatocytes 1.0×10^6 viable cells/mL, 37° C., up to 120 minutes; read-out: Rat Hepatocytes Median t1/2. The method, then: Stock solutions (10 mM) of Compounds A, B, C, D and of control compounds were prepared in the appropriate solvent (DMSO). The L-15 Medium was placed in a 37° C. water bath, and allowed to warm for at least 15 minutes prior to use. Acetonitrile (80 μL) was added to each well of the 96-well plate (quenching plate).
In a new 96-well plate, the solutions of the above compounds and of the control compounds were diluted to 100 μM by combining 198 μL of acetonitrile and 2 μL of each stock solutions. A vial of cryopreserved rat hepatocytes was removed from storage, while ensuring that the vial remain at cryogenic temperatures until thawing process ensued. As quickly as possible, the cells were thawed by placing the vial in a 37° C. water bath and gently shaking the vial. The vial remained in the water bath until all ice crystals had dissolved and were no longer visible. After thawing was completed, the vial was sprayed with 70% ethanol, and transferred into a biosafety cabinet. The vial was opened and the content poured into a 50 mL conical tube containing L-15 Medium. The vial was washed twice. The 50 mL conical tube was placed in a centrifuge and spun at 50 g for 3 minutes (room temperature). The L-15 medium was aspirated. A small volume of buffer (˜200 μL) was added and the pellet was re-suspended. The tube was filled with buffer to a volume of 50 mL and centrifugation was repeated. Upon completion of spin, the L-15 Medium was aspirated and the hepatocytes re-suspended in enough incubation medium to yield ˜1.5×10^6 cells/mL. Using Cellometer® Vision, the cells were counted and the viable cell density was determined. Cells with poor viability (<80% viability) were not acceptable for use. Cells were diluted with incubation medium to a working cell density of 1.0×10^6 viable cells/mL. Hepatocytes (247.5 μL) were transferred into each well of a 96-well cell culture plate. The plate was placed on an Eppendorf Thermomixer Comfort plate shaker to allow the hepatocytes to warm for 10 minutes.
Solutions (2.5 μL of 100 μM) of Compounds A, B, C, D and of the control compounds were added into an incubation well containing cells and mixed to achieve a homogenous suspension at 0.5 minutes, which when achieved, defined the 0.5 minute time point. At the 0.5 minute time point, the incubated mixture (20 μL) was transferred to wells in a “Quenching plate,” followed by vortexing. […]
All calculations were carried out using Microsoft Excel. Peak areas were determined from extracted ion chromatograms. The in vitro half-life (t1/2) of the parent compound was determined by regression analysis of the Ln percent parent disappearance vs. time curve.
The in vitro intrinsic clearance (in vitro Clint, in μL/min/10^6 cells) was determined from the slope value using the following equation: […]

Data set [2] in a line: Metabolic stability and intrinsic clearance in dog hepatocytes. The class given is in vitro ADME. Conditions: cryopreserved dog hepatocytes 1.0×10^6 viable cells/mL, 37° C., up to 120 minutes; read-out: Dog Hepatocytes Median t1/2. How it is done: Stock solutions (10 mM) of the test compounds and control compounds were prepared in appropriate solvent (DMSO). The incubation medium (L-15 Medium) was placed in a 37° C. water bath, and warming was allowed for at least 15 minutes prior to use. 80 μL of acetonitrile was added to each well of the 96-well deep well plate (quenching plate). In a new 96-well plate, the 10 mM test compound solutions and the control compound solution were diluted to 100 μM by combining 198 μL of acetonitrile and 2 μL of 10 mM stock. A vial of cryopreserved dog hepatocytes was removed from storage, while ensuring that vials remain at cryogenic temperatures until thawing process ensued. As quickly as possible, the cells were thawed by placing the vial in a 37° C. water bath and gently shaking the vials. Vials remained in water bath until all ice crystals had dissolved and were no longer visible. After thawing was complete, vial was sprayed with 70% ethanol, and transferred to a biosafety cabinet. The vial was opened and the contents poured into the 50 mL conical tube containing thawing medium. The 50 mL conical tube was placed into a centrifuge and spun at 100 g for 10 minutes. Upon completion of spin, the thawing medium was aspirated and hepatocytes resuspended in enough incubation medium to yield ˜1.5×10^6 cells/mL. Using Cellometer® Vision, cells were counted and the viable cell density was determined. Cells with poor viability (<80% viability) were not acceptable for use. Cells were diluted with incubation medium to a working cell density of 1.0×10^6 viable cells/mL. 247.5 μL of hepatocytes were transferred into each well of a 96-well cell culture plate. The plate was placed on Eppendorf Thermomixer Comfort plate shaker to allow the hepatocytes to warm for 10 minutes. 2.5 μL of 100 μM test compound solution or control compound solution were added into an incubation well containing cells, and mixed to achieve a homogenous suspension at 0.5 minutes, which when achieved, defined the 0.5 minute time point. At the 0.5 minute time point, 20 μL of incubated mixture was transferred to wells in a “Quenching” plate followed by vortexing. The plate was incubated at 37 ° C. at 900 rpm on an Eppendorf Thermomixer Comfort plate shaker. At 5, 15, 30, 45, 60, 80, 100 minutes and 120 minutes, the incubation system was mixed and samples of 20 μL of incubated mixture were serially transferred at each time point to wells in a separate “Quenching” plate followed by vortexing. The quenching plates were centrifuged for 20 minutes at 4,000 rpm. […]
All calculations were carried out using Microsoft Excel. Peak areas were determined from extracted ion chromatograms. […]
The in vitro intrinsic clearance (in vitro Clint, in μL/min/10^6 cells) is determined from the slope value using the following equation: […]

Regarding `[2H]C1([2H])OC([2H])([2H])C([2H])([2H])N(C(=O)c2cc(-c3cc(Cl)c4c(c3)CN([C@@H](C)C3CC3)C4=O)on2)C1([2H])[2H]` [Compound A, (S)-7-chloro-2-(1-cyclopropylethyl)-5-(3-(morpholine-4-carbonyl-2,2,3,3,5,5,6,6-d8)isoxazol-5-yl)isoindolin-1-one], the half-life at 1 μM stood at 100 min in data set [1] and 40.1 min in data set [2].

As to `[2H]C1([2H])CN(C(=O)c2cc(-c3cc(Cl)c4c(c3)CN([C@@H](C)C3CC3)C4=O)on2)CC([2H])([2H])O1` [Compound B, (S)-7-chloro-2-(1-cyclopropylethyl)-5-(3-(morpholine-4-carbonyl-2,2,6,6-d4)isoxazol-5-yl)isoindolin-1-one], the half-life at 1 μM is 36.8 min in data set [1] and 40.1 min in data set [2].

Take `[2H]C1([2H])COCC([2H])([2H])N1C(=O)c1cc(-c2cc(Cl)c3c(c2)CN([C@@H](C)C2CC2)C3=O)on1` [Compound C, (S)-7-chloro-2-(1-cyclopropylethyl)-5-(3-(morpholine-4-carbonyl-3,3,5,5-d4)isoxazol-5-yl)isoindolin-1-one]: the values for the half-life at 1 μM in data set [1] and in data set [2] were 29.1 min and 33.3 min, respectively.

Regarding `C[C@@H](C1CC1)N1Cc2cc(-c3cc(C(=O)N4CCOCC4)no3)cc(Cl)c2C1=O` [Compound D, (S)-7-chloro-2-(1-cyclopropylethyl)-5-(3-(morpholine-4-carbonyl)isoxazol-5-yl)isoindolin-1-one, reference compound], the half-life at 1 μM in data set [1] was 37.3 min; in data set [2], 29.9 min.
